Measurements from patent publication US9381173B2, “Isolated stereoisomeric forms of (S)2-N(3-O-(propan 2-Ol)-1-propyl-4-hydroxybenzene)-3-phenylpropylamide” (Novaremed Ltd., priority 2011, dated 2016).

Assays:
[1] = test system: tail flick model for nociceptive pain in mice; test: Tail flick test for nociceptive pain; assay type: in vivo; conditions: for Mean latency time Post-treatment: 30 minutes after administration; for Mean latency time Pre-treatment: baseline a day before
Procedure: In the present study the analgesic effect of the substantially pure enantiomers E1 and E2 was evaluated using the tail flick model for nociceptive pain in mice.
The experiment was performed using male ICR strain 7 weeks old mice (25-27 g) (supplied by Harlan Israel, Ltd.)
Response to pain was assessed using the tail flick method which utilizes an Ugo Basile tail flick instrument. The animal is placed and held gently on the Ugo Basile tail flick (TF) instrument surface with the tail straight back and above a photoelectric cell that served as heat source. The heat source and timer are turned on by a foot pedal press, and automatically switch off when the animal flicks its tail off the emitter. Latency is measured and analyzed as an analgesic effect.
Description of the Study: The baseline tail flick was measured a day before the experiment started. On the day of the experiment, animal body weights were first measured followed by the IP administration of the test items (vehicle, morphine, NRD 13 S E1 and E2). 30 minutes after administration of the test items, the animals were subjected to the tail-flick testing. The tail-flick experiments were followed by blood sampling of all groups. The experiment was terminated after spinal cords and brains of all groups have been collected.
Statistics and Data Evaluation: All parameters are represented as means and standard error of the mean (SEM). Data was analyzed using a two tailed, unpaired T-test to compare each treatment group to the Vehicle treated animals. A two-tailed, paired T-test was used to compare the pre-treatment and post-treatment of each treatment group. Probability values p<0.01 and p<0.05 are considered significant.

[2] = biological target: BLK (Homo sapiens, UniProt P51451); test: BLK mobility-shift kinase assay (Caliper LabChip 3000); assay type: biochemical; conditions: 5 concentrations, duplicate wells; listed as (S,R) enantiomer
Chain of BLK (P51451 whole entry, species assumed): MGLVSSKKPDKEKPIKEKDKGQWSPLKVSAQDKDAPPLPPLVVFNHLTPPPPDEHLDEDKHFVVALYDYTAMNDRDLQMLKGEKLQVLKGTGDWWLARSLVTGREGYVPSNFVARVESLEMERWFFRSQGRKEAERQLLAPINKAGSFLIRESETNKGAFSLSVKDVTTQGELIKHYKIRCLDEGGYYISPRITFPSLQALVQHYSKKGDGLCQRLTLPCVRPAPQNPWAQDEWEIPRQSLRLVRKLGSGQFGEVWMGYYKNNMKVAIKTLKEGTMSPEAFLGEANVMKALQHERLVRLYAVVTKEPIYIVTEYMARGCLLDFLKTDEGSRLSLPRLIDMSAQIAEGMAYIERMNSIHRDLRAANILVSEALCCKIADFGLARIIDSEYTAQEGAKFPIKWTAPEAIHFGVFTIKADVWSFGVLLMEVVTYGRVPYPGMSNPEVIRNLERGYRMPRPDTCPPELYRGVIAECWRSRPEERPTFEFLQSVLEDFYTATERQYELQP
Procedure: (§1) Each compound and concentration was tested in duplicate wells.
(§2) Data points are the averages of duplicate wells. Error bars represent the mean±replicate % activity.

[3] = biological target: Lyn A (Homo sapiens, UniProt P07948); test: Lyn A mobility-shift kinase assay (Caliper LabChip 3000); assay type: biochemical; conditions: 5 concentrations, duplicate wells; listed as (S,R) enantiomer
Chain of Lyn A (P07948 whole entry, species assumed): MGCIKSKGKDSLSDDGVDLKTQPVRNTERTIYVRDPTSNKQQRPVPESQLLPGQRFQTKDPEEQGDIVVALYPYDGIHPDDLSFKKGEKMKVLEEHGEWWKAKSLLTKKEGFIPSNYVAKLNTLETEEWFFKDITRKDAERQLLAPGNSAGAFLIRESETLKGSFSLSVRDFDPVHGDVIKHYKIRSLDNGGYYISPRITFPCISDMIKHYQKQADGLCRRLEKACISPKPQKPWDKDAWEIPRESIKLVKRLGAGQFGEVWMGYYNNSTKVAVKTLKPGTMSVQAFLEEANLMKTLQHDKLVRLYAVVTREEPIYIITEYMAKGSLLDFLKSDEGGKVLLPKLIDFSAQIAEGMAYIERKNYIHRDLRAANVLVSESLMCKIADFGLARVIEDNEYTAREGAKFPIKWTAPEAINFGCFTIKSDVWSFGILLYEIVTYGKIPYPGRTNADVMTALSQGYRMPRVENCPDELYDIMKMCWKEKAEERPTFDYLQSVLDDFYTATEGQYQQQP
Procedure: as §1, §2

[4] = biological target: Lyn B (Homo sapiens, UniProt P07948); test: Lyn B mobility-shift kinase assay (Caliper LabChip 3000); assay type: biochemical; conditions: 5 concentrations, duplicate wells; listed as (S,R) enantiomer
Chain of Lyn B (P07948 1-491 isoform P07948-2, species assumed): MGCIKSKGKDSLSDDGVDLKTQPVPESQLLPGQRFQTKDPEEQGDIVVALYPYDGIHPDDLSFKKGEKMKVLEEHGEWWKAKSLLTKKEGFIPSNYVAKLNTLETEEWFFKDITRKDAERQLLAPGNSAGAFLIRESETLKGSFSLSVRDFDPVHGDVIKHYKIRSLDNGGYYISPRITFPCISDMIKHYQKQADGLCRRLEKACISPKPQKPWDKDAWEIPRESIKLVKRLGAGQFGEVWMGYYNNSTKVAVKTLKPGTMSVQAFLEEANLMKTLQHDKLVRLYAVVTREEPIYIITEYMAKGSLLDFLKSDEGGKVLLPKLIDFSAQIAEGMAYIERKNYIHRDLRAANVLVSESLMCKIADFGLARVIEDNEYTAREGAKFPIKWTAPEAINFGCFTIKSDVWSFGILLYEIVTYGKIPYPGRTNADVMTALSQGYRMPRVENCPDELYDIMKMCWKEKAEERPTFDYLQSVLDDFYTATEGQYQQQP
Procedure: as §1, §2

[5] = test system: spinal nerve ligation (SNL or Chung) model for neuropathic pain in rats; test: Spinal nerve ligation (Chung) model, Von Frey test for mechanical allodynia; assay type: in vivo
Procedure: The antinociceptive and analgesic activity of E1 in a spinal nerve ligation (SNL or Chung) model for neuropathic pain in rats was evaluated.
On study day 0, all animals underwent Chung surgery, which consisted of an operation where the left L5-L6 spinal nerves were isolated and cut. Fourteen days post surgery the animals were selected using pain threshold results from the Von Frey test. Only animals that indicated signs of mechanical allodynia were included in the study. After the selection process, the animals were grouped and Test Items were administered via IP. The pain response was measured using Von Frey methodology at 2, 5 and 24 hours after Test Item administration on study day 14, and at 2, 5, 24 and 48 hours on study day 21 after 7 days of Test Item administration.
Species: 50 SD young adult male rats, 225-260 g at study initiation (Harlan Laboratories, Israel. Ltd.)
Neuropathic Pain Induction: While under anesthesia using ketamine/xylazine sodium and after the area was shaved, the rat was placed in a prone position and the left paraspinal muscles were separated from the spinous process at the L4-S2 levels. The L6 vertebral transverse process was carefully removed with a small rongeur to visually identify the L5-L6 spinal nerves. The left L5-L6 spinal nerves were cut. The muscle was then closed with 4-0 silk sutures and the skin was closed by a clamp. Following surgery, the rats were returned to the cage and remained under a heating lamp until they awoke.
Inclusion/Exclusion Criteria for Pre-Selection: On post-operative day 14, animals were tested for mechanical allodynia using Von Frey methodology prior to being placed in their experimental groups. Only animals with a pain threshold of ≦26 g for the operated leg were included in the study. In order to form homogenous treatment groups and to adhere to randomization, all the operated rats were grouped according to inclusion/exclusion criteria.
The Von Frey test was performed prior to Test Items' administrations (pre-TI injection) and at 2 and 5 hours after TI administration (post-TI injection) on study days 14 and 21.
Von Frey test was performed prior to TI's administration on study day 15 (24 hours post-TI's administration on study day 14) and on study days 22 and 23 (24 and 48 hours respectively post-TI's administration on study day 21).
Pain Response Evaluation: Pain response was evaluated using Von Frey test for mechanical allodynia.
The Von Frey test for mechanical allodynia is based on applying short pulses of pressure that are not painful to a naive animal. In fact, in order to achieve paw withdrawal from a naive animal, the pressure applied is sometimes higher than 60 g. This often requires the researcher to apply enough pressure with the Von Frey filament to actually lift the paw of the naive animal. However, in disease conditions, the animals are sensitive to much lower pressure and experience pain as a result of a normally non-painful stimulus.
Mechanical Allodynia Evaluation (Von Frey Testing): Allodynic response to tactile stimulation was assessed using the Von Frey apparatus (Touch®).
The rats were placed in an enclosure and positioned on a metal mesh surface, but allowed to move freely. The rats' cabins were covered with red cellophane to diminish environmental disturbances. The test began after cessation of exploratory behavior. The set of Von Frey monofilaments provide an approximate logarithmic scale of actual force and a linear scale of perceived intensity as provided by the manufacturer of the Von Frey apparatus (Ugo Basil). The operating principle: When the tip of a fiber of given length and diameter is pressed against the skin at right angles, the force of application increases as long as the researcher continues to advance the probe until the fiber bends. After the fiber bends, the probe continues to advance, causing the fiber to bend more, but without additional force being applied to the paw. […]

[6] = Body weight in the Chung model study; assay type: in vivo, rats
Procedure: Body Weights: Body weight was measured at regular intervals on study days −1 for baseline values and seven days after the surgery (study day 7).

[7] = 150 mg/kg IP (group 2), before first dose
[8] = 150 mg/kg IP on days 14, 15, 21 (group 2)
[9] = 150 mg/kg IP, study day 14, 2 hours
[10] = 150 mg/kg IP, study day 21, 2 hours

## CC(O)COCC(Cc1ccc(O)cc1)NC(=O)CCc1ccccc1 [E2, (S)2-N(3-O—((R)propan 2-ol)-1-propyl-4-hydroxybenzene)-3-phenylpropylamide]
[1]; 10 mg/kg IP
  difference in tail flick latency times: did not cause any statistically significant difference
  increase of latency time between pretreatment and post treatment: not statistically significant
  reducing pain when compared to the Vehicle: not significantly active in reducing pain
[1]; 10 mg/kg IP (groups 4, 6)
  Δ of latency time post- and pre-treatment: 0.63 ± 0.87 s
  Mean latency time Post-treatment: 8.93 ± 0.93 s
  Mean latency time Pre-treatment: 8.30 ± 0.46 s
[1]; dose of 10 mg/kg
  conclusion: activity in tail flick study: not active
[1]; summary statement, listed as (S,R) enantiomer
  pain analgesic in animal models of pain: ineffective or less effective
[2]
  modulation of BLK tyrosine kinase activity: inhibited
[3]
  modulation of LynA tyrosine kinase activity: inhibited
[4]
  modulation of LynB tyrosine kinase activity: inhibited

## NCC1(CC(=O)O)CCCCC1 [Gabapentin, reference compound]
[5]; 150 mg/kg IP (group 2)
  delta force right minus left leg, Day 14 Post-treatment 5 hours: 48.20 ± 1.85 g
  mean Von Frey force, left operated leg, Day 14 Post-treatment 5 hours: 11.80 ± 1.85 g
[5]; [7]
  delta force right minus left leg, Day 14 Pretreatment: 50.00 ± 0.88 g
  mean Von Frey force, left operated leg, Day 14 Pretreatment: 10.00 ± 0.88 g
[5]; 150 mg/kg IP (group 2), before operation
  difference (delta) force between right healthy leg and left operated leg, Baseline: 0.00 ± 0.00 g
[5]; 150 mg/kg IP (group 2), day -1, before operation
  mean Von Frey force required for withdrawal of the left operated leg, Baseline: 53.20 ± 4.53 g
[5]; [8]
  delta force right minus left leg, Day 21 Post-treatment 5 hours: 47.40 ± 1.85 g
  delta force right minus left leg, Day 21 Post-treatment 24 hours: 46.60 ± 2.29 g
  delta force right minus left leg, Day 21 Post-treatment 48 hours: 50.50 ± 0.69 g
  delta force right minus left leg, Day 21 Pretreatment: 49.80 ± 0.85 g
  mean Von Frey force, left operated leg, Day 21 Post-treatment 5 hours: 12.60 ± 1.85 g
  mean Von Frey force, left operated leg, Day 21 Post-treatment 24 hours: 13.40 ± 2.29 g
  mean Von Frey force, left operated leg, Day 21 Post-treatment 48 hours: 9.50 ± 0.69 g
  mean Von Frey force, left operated leg, Day 21 Pretreatment: 10.20 ± 0.85 g
[5]; 150 mg/kg IP, 2 hours after administration on study days 14 and 21
  conclusion: analgesic activity of the positive control: active
[5]; 150 mg/kg IP, 5 hours, 24 hours and 48 hours post dosing
  conclusion: analgesic activity of the positive control: no longer detected
[5]; 150 mg/kg IP, day 14, 2 hours
  inhibition of allodynia compared to the pretreatment value of delta withdrawal force: inhibited allodynia
[5]; 150 mg/kg IP, day 14, 5 hours
  inhibition of allodynia compared to the pretreatment value of delta withdrawal force: not effective
[5]; 150 mg/kg IP, day 14 and day 21, 2 hours
  pain relief activity, delta withdrawal force between the two legs vs. Vehicle: significant pain relief activity
[5]; 150 mg/kg IP, day 21, 2 hours
  inhibition of allodynia compared to the pretreatment value of delta withdrawal force: effectively inhibited allodynia
[5]; [9]
  inhibition of allodynia (Von Frey) compared to the Vehicle control: inhibited allodynia
  inhibition of allodynia (Von Frey) compared to the pretreatment value: inhibited allodynia
[5]; 150 mg/kg IP, study day 14, 5 hours
  inhibition of allodynia (Von Frey) compared to the Vehicle control: not effective
[5]; 150 mg/kg IP, study day 14, 24 hours
  inhibition of allodynia (Von Frey) compared to the pretreatment value: not effective
[5]; [10]
  inhibition of allodynia (Von Frey) compared to the Vehicle control: effectively inhibited allodynia
  inhibition of allodynia (Von Frey) compared to the pretreatment value: inhibited allodynia
[5]; 150 mg/kg IP, study day 21, 5 hours
  inhibition of allodynia (Von Frey) compared to the Vehicle control: not effective
[5]; summary statement
  duration of analgesic effect post administration: ≤ 5 h
[6]; 150 mg/kg IP (group 2), before first administration
  Mean group body weight Day 14: 283.30 ± 2.53 g
[6]; 150 mg/kg IP (group 2), before treatment
  Mean group body weight Day 7: 255.20 ± 2.83 g
[6]; 150 mg/kg IP (group 2), study day -1, before surgery and treatment
  Mean group body weight Baseline: 242.10 ± 2.44 g
[6]; [8]
  Mean group body weight Day 21: 307.90 ± 3.42 g

## CN1CC[C@]23c4c5ccc(O)c4O[C@H]2[C@@H](O)C=C[C@H]3[C@H]1C5 [Morphine, reference compound]
[1]; 5 mg/kg IP (group 2)
  Mean latency time Post-treatment: 15.38 ± 1.47 s
  Mean latency time Pre-treatment: 7.92 ± 0.17 s
[1]; 5 mg/kg IP (group 2), listed as morphine
  Mean latency time Pre-treatment: 7.92 ± 0.17 s
